This note sets out measurements from patent publication US20140162991A1, “TESTOSTERONE-ANASTROZOLE (T + A) C[…] IN THE NEO-ADJUVANT, LOCAL AND SYSTEMIC THERAPY OF NEWLY DIAGNOSED, […] BREAST CANCER” (priority 2012, published 2014).

The series in a line: adverse effects and systemic symptoms in treated patients. The settings on record: pharmacologic doses of testosterone.

With `C[C@]12CC[C@H]3[C@@H](CCC4=CC(=O)CC[C@@]43C)[C@@H]1CC[C@@H]2O` [testosterone], the adverse events result is “not associated with adverse events”. The androgenic side effect result (applicant's patients) was “slight increase in facial hair”.
